Data on 1 molecule can be found in patent publication US20170151240A1, “F10 Inhibits Growth of PC3 Xenografts and Enhances the Effects of Radiation Therapy” (WAKE FOREST UNIVERSITY, priority 2014, published 2017).

Structures are written as SMILES. Where only a bound is given, the exact number is not on record here.

The conditions of data set [1]: once daily, three times per week; higher doses lethal; cited from earlier work.
For data set [2], the target named is T1, thymidylate synthase (TS) (Homo sapiens, UniProt P04818).
T1 construct: endogenous in cells; host or cells: PC3 (human prostate cancer cell line, ATCC)
Kind of data set: TS catalytic activity assay in treated PC3 cells. Type of data set: cell-based. The following applies: 5-FU 10^−6 M. The text has this: (§1) Other anti-angiogenic/anti-tumor agents that can be used in conjunction with the compounds, compositions, methods and combination therapy of the present invention include: SD-7784 (Pfizer, USA); cilengitide. […]

The test system of a further data set is PC3 cells. In words: Clonogenic survival assay. Type of data set: cell-based, human. The following applies: 72 h treatment; for decrease of colony formation relative to control: 10 μM.
Excerpt: as §1

T1 sequence (P04818 2-313 limits assumed): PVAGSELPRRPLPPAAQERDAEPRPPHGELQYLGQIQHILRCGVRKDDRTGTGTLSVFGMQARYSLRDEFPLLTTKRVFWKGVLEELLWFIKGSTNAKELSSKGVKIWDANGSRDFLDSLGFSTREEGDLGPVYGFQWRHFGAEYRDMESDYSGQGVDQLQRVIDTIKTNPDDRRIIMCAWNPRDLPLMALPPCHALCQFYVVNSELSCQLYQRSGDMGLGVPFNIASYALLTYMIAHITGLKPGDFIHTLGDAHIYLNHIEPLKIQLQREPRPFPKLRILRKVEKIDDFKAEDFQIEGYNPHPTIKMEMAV

For `O=c1[nH]cc(F)c(=O)[nH]1` [5-FU, 5-fluorouracil], in data set [1], the maximum tolerated dose is given as 45 mg/kg/dose. For the same molecule, the “TS activity relative to control” value in data set [2] (8 and 16 h) is reported as “increased”. In addition, in data set [2] (48 h timepoint), the TS activity is around 50 % control. The “PC3 cell colony formation” value with PC3 cells (1 μM) is on record as “no effect”. The “decrease of colony formation relative to control” value with PC3 cells was below 50%; in the data set with PC3 cells (listed as 5FU) it was “less than 50%”.
